Laboratory results reported in publication PMC8821551, “Binding of cationic analogues of α-MSH to lipopolysaccharide and disruption of the cytoplasmic membranes caused bactericidal action against Escherichia coli” (Scientific Reports, 2022).
Residues, ends and D or L forms follow the SMILES beside them.

Key:
Format in all cases: cell-based, Escherichia coli
E. coli ATCC 25922 = test: Killing assay (killing kinetics), logarithmic phase cells; conditions: for concentration at which a bactericidal effect (> 3 log reduction) was achieved: logarithmic phase E. coli cells (Fig. 1); for log reduction in cell viability: average ± SE, SEM
Description: (§1) For this study, a well-characterized strain of E. coli (ATCC 25922) was used. The strain was stored at − 80 °C in 15% (v/v) glycerol until sub-cultured onto LB agar plates for use.
(§2) The antibacterial activity of α-MSH and its cationic analogues was determined against both logarithmic (2–3 h) and stationary (16–18 h) phase of E. coli cells in LB medium. The bacterial suspension was pelleted, washed, and diluted in HEPES-glucose buffer (5 mM HEPES, 20 mM glucose, pH 7.4) to adjust the cell density by measuring the OD = 0.5 (10^8 CFU/mL) at 600 nm using a spectrophotometer. This suspension was used to obtain the desired inoculum sizes (10^5 CFU/mL, 10^6 CFU/mL, and 10^7 CFU/mL). The inoculums were exposed to various concentrations of peptides (1 µM, 2 µM, 5 µM, and 10 µM) and incubated at 37 °C. Untreated E. coli cells were also included as a control. At selected time points (0 min, 15 min, 30 min, 60 min, and 120 min), aliquots were taken out, and survival of E. coli cells was determined by quantitative plating on LB agar after appropriate dilution in the same buffer. The plates were incubated overnight at 37 °C, followed by colony counting. Each experiment was performed at least three times on three independent days.

dye-loaded E. coli cells = test: Viability of DiSC3(5) dye-loaded cells by plating; conditions: dye-loaded cells 10^6, HEPES-glucose buffer, two different days
Description: (§3) The membrane depolarization of E. coli cells was determined using a potentiometric fluorescent probe DiSC3(5), as described elsewhere. Briefly, mid-log phase E. coli cells were diluted to 10^6 CFU/mL in the same HEPES-glucose buffer and were incubated with DiSC3(5) and EDTA at 0.4 µM and 0.2 mM concentrations, respectively, for 1 h in the dark at 37 °C, till the maximum uptake of the probe occurred. Increasing concentrations of the studied peptides from 1 µM to 10 µM were then added to these dye-loaded cells in a quartz cuvette, and the fluorescence intensity was measured on spectrofluorimeter (Shimadzu RF-5301 PC) set as excitation at 622 nm and emission at 670 nm. The increase in fluorescence intensity accounted for the dissipation of membrane potential caused due to peptide treatment. Cells treated with 10 µM melittin were used as a positive control. Simultaneously, the dye-loaded cells were plated onto LB agar to estimate bacterial cell death.
Figure S1: Survival of dye-loaded cells (10^6) treated with various concentrations of peptides that correspond to the inner membrane depolarization. The dye-loaded E. coli cells suspended in HEPES-glucose buffer ([…]) were incubated with different concentration of α-MSH and its analogues for 2 minutes and further diluted in the same buffer and plated on LB agar plates. The plates were further incubated at 37 °C for 16 h. Next day the colonies were counted.^1 The experiment was performed on two different days and the representative values (mean ± SE) are shown in graph. (⁎, P < 0.05; ⁎⁎, P < 0.01, compared to that of control at the same concentration).

[1] = test system: stationary phase E. coli cells; test: Killing assay, stationary phase cells; conditions: 10^5 CFU/mL
Description: as §1, §2

E. coli outer membrane = test: Outer membrane permeabilization assay (NPN uptake); conditions: 10^8 CFU/mL mid-log cells, 10 μM NPN, relative to 10 µM polymyxin B = 100%
Description: The outer membrane permeabilization assay was done as described in the literature with slight modifications. Briefly, bacterial cells were grown to mid-log phase in LB medium, washed and diluted to 10^8 CFU/mL in HEPES-glucose buffer. Next, this bacterial suspension was treated with 10 μM NPN probe and subsequently challenged with increasing concentrations of peptides (1 µM to 20 µM). Changes in the fluorescence intensity of NPN were measured with the help of Shimadzu RF-5301 PC spectrofluorimeter (excitation at 350 nm and emission at 420 nm). Increased intensity of emission resulted from the damage to the bacterial outer membrane and was measured until no further increase in fluorescence was observed. NPN uptake was calculated using the following formula: %NPNuptake=Fobs-F0/F100-F0×100 where Fobs is the NPN fluorescence intensity after the peptide treatment, F0 is the NPN fluorescence with untreated E. coli cells, and F100 is the NPN fluorescence in the presence of 10 µM polymyxin B (a positive control).

E. coli cells = test: Membrane permeabilization assay (PI uptake, flow cytometry); conditions: 1 h; for PI positive cells: at lower and higher concentrations, from 2 to 10 µM, 10^6 CFU/mL, PI 1.3 µg/mL, 37 °C, flow cytometry; for cell viability on plating the cell suspension used for the PI uptake assay, in words: same cell density and peptide concentrations as PI uptake experiment
Description: Membrane permeabilization of E. coli cells was determined via propidium iodide (PI) uptake assay through flow cytometry as described previously with slight modifications. Briefly, mid-log phase E. coli cells were adjusted to 10^6 CFU/mL in the HEPES-glucose buffer. Next, cells were incubated with propidium iodide (PI) at 1.3 µg/mL concentration for 30 min in the dark. After incubation, PI-loaded cells were treated with a range of peptide concentrations, i.e., 1 µM, 2 µM, 5 µM, and 10 µM, at 37 °C for 1 h, and PI fluorescence intensity was measured through Becton Dickinson (BD) FACS verse (San Jose, CA) flow cytometer using excitation at 544 nm and emission at 620 nm.
Figure S2: Histograms of E. coli cells treated with 2 µM concentration of α-MSH and its analogues and 1 µM concentration of polymyxin B for 1 h. Towards monitoring the membrane permeabilizations of E. coli cells, propidium iodide (PI) uptake assay through flow cytometry was performed using the previously standardized method with mild modifications ^2. Briefly, mid-log phase grown E. coli cells (10^6 CFU/mL) suspended in the HEPES-glucose buffer were incubated with propidium iodide (PI) at a concentration of 1.3 µg/mL for 30 min in dark. After incubation, PI loaded cells were treated with a range of peptide concentrations; 1 µM, 2 µM, 5 µM and 10 µM at 37 °C for 1 h, and PI fluorescence intensity was measured through Becton Dickinson (BD) FACS verse (San Jose, CA) flow cytometer using excitation at 544 nm and emission at 620 nm.

[2] = test system: E. coli cytoplasmic or inner membrane; test: Membrane depolarization assay (DiSC3(5)); conditions: DiSC3(5) 0.4 µM, 0.2 mM EDTA, 10^6 CFU/mL mid-log cells, HEPES-glucose buffer; peptide 1 to 10 µM
Description: as §3

[3] = peptide 10 µM, 2 min of exposure
[4] = peptide 1 μM, HEPES-glucose buffer, average of three independent days
[5] = peptide 20 μM (highest concentration)

CSCC[C@H](NC(=O)[C@H](CCCCN)NC(=O)[C@H](Cc1ccc(O)cc1)NC(=O)[C@H](CCCCN)NC(C)=O)C(=O)N[C@@H](C)C(=O)N[C@@H](Cc1c[nH]cn1)C(=O)N[C@@H](Cc1ccccc1)C(=O)N[C@@H](CCCNC(=N)N)C(=O)N[C@@H](Cc1c[nH]c2ccccc12)C(=O)NCC(=O)N[C@@H](CCCCN)C(=O)N1CCC[C@H]1C(=O)N[C@H](C(N)=O)C(C)C [KKA-MSH] (Ac-KYKMAHFRWGKPV-NH2)
concentration at which a bactericidal effect (> 3 log reduction) was achieved (E. coli ATCC 25922): 5 µM
log reduction in cell viability (E. coli ATCC 25922; logarithmic phase, 10^5 CFU/mL, HEPES-glucose buffer pH 7.4, 37 °C, peptide 1 µM, 1 h, three independent experiments): 1.8 ± 0.1 log
log reduction in cell viability (E. coli ATCC 25922; logarithmic phase, 10^5 CFU/mL, HEPES-glucose buffer pH 7.4, 37 °C, peptide 1 µM, 2 h, three independent experiments): 2.1 ± 0.1 log
log reduction in cell viability (E. coli ATCC 25922; logarithmic phase, 10^5 CFU/mL, HEPES-glucose buffer pH 7.4, 37 °C, peptide 2 µM, 1 h, three independent experiments): 2.7 ± 0.3 log
log reduction in cell viability (E. coli ATCC 25922; logarithmic phase, 10^5 CFU/mL, HEPES-glucose buffer pH 7.4, 37 °C, peptide 2 µM, 2 h, three independent experiments): 2.9 ± 0.2 log
change of killing activity at 5 µM against lower concentrations, in words (E. coli ATCC 25922; logarithmic phase, 10^5 CFU/mL, peptide 5 µM): no change in its activity
bactericidal effect (> 3 log reduction), in words (E. coli ATCC 25922; logarithmic phase, 10^5 CFU/mL, peptide 2, 5 and 10 µM, 1 h of incubation): accomplished bactericidal effect
log reduction in cell viability (E. coli ATCC 25922; logarithmic phase, 10^6 CFU/mL, peptide 10 µM, 2 h, three independent days): 3.5 ± 0.2 log
log reduction in cell viability (E. coli ATCC 25922; logarithmic phase, 10^7 CFU/mL, peptide 10 µM, 2 h, three independent days): 2.7 ± 0.02 log
log reduction in cell viability of dye-loaded cells (dye-loaded E. coli cells; peptide 5 µM, 2 min exposure): 1 log
log reduction in cell viability of dye-loaded cells (dye-loaded E. coli cells; [3]): 1 log
log reduction in cell viability ([1]; HEPES-glucose buffer, 37 °C, peptide 10 µM, 2 h, mean ± SE, three independent days, SEM): 2.2 ± 0.2 log
killing activity against stationary phase cells, in words ([1]; peptide 10 µM, up to 2 h): could not obliterate the stationary phase cells
%NPN uptake (E. coli outer membrane; [4]): 12.5%
%NPN uptake (E. coli outer membrane; [5]): 55%
PI positive cells (E. coli cells): more than 80%
cell viability on plating the cell suspension used for the PI uptake assay, in words (E. coli cells): significant reduction in the cell viability
lowest concentration that induced depolarization of E. coli inner membrane [2]: 2 µM

CSCC[C@H](NC(=O)[C@H](CCCCN)NC(=O)[C@H](Cc1ccc(O)cc1)NC(=O)[C@H](CCCCN)NC(C)=O)C(=O)N[C@@H](CCCCN)C(=O)N[C@@H](Cc1c[nH]cn1)C(=O)N[C@@H](Cc1ccccc1)C(=O)N[C@@H](CCCNC(=N)N)C(=O)N[C@@H](Cc1c[nH]c2ccccc12)C(=O)NCC(=O)N[C@@H](CCCCN)C(=O)N1CCC[C@H]1C(=O)N[C@H](C(N)=O)C(C)C [KKK-MSH] (Ac-KYKMKHFRWGKPV-NH2)
concentration at which a bactericidal effect (> 3 log reduction) was achieved (E. coli ATCC 25922): 1 µM
incubation time to complete eradication of the cells (E. coli ATCC 25922; logarithmic phase, 10^5 CFU/mL, HEPES-glucose buffer, 37 °C, peptide 1 µM): ≤ 15 min
incubation time to complete eradication of the cells (E. coli ATCC 25922; logarithmic phase, 10^5 CFU/mL, HEPES-glucose buffer, 37 °C, peptide 2 µM): ≤ 15 min
log reduction in cell viability (bactericidal effect) (E. coli ATCC 25922; logarithmic phase, 10^5 CFU, peptide 1 µM, within 15 min): > 3 log
complete eradication of the cells, in words (E. coli ATCC 25922; logarithmic phase, 10^6 CFU/mL, peptide 1 µM): not at 1 µM concentration
incubation time to complete eradication of the cells (E. coli ATCC 25922; logarithmic phase, 10^6 CFU/mL, peptide 2 µM): 60 min
incubation time to complete eradication of the cells (E. coli ATCC 25922; logarithmic phase, 10^6 CFU/mL, peptide 5 µM): 30 min
incubation time to complete eradication of the cells (E. coli ATCC 25922; logarithmic phase, 10^6 CFU/mL, peptide 10 µM): 15 min
incubation time to no viable cells (E. coli ATCC 25922; logarithmic phase, 10^7 CFU/mL, peptide 10 µM): 1 h
lowest concentration at which the bactericidal effect was maintained (E. coli ATCC 25922; logarithmic phase, high cell density): 2 µM
log reduction in cell viability of dye-loaded cells (dye-loaded E. coli cells; peptide 5 µM, 2 min exposure): 1.73 log
log reduction in cell viability of dye-loaded cells (dye-loaded E. coli cells; [3]): 2.1 log
incubation time to complete removal of the cells ([1]; peptide 1 µM): 2 h
log reduction in the viability of the stationary phase cells ([1]; peptide 1 µM, 1 h): 2.5 log
incubation time to eradication of the stationary phase cells ([1]; peptide 10 µM): 30 min
%NPN uptake (E. coli outer membrane; [4]): 30.7%
%NPN uptake (E. coli outer membrane; peptide 2 μM): 34%
%NPN uptake (E. coli outer membrane; peptide 5 μM): 55.6%
%NPN uptake (E. coli outer membrane; peptide 10 μM): 77.6%
%NPN uptake (E. coli outer membrane; [5]): 86%
PI positive cells (E. coli cells): more than 80%
cell viability on plating the cell suspension used for the PI uptake assay, in words (E. coli cells): significant reduction in the cell viability
lowest concentration that induced depolarization of E. coli inner membrane [2]: 2 µM
